# From ChEMBL document CHEMBL2016457, “Discovery of potent and orally bioavailable 17β-hydroxysteroid dehydrogenase type 3 inhibitors” (Bioorg Med Chem, 2012)
# Active and inactive are the calls of the source. How the calls were made is not given here.
# Experiments:
# [1] = biological target: T1, 17-beta-hydroxysteroid dehydrogenase type 1 (Homo sapiens) (UniProt P14061); experiment: Inhibition of human recombinant 17-beta-HSD1 expressed in human HeLa cells using estrone as substrate preincubated for 30 mins prior substrate addition measured after 120 mins by spectrophotometry; assay type: cell-based
# T1 sequence (whole entry): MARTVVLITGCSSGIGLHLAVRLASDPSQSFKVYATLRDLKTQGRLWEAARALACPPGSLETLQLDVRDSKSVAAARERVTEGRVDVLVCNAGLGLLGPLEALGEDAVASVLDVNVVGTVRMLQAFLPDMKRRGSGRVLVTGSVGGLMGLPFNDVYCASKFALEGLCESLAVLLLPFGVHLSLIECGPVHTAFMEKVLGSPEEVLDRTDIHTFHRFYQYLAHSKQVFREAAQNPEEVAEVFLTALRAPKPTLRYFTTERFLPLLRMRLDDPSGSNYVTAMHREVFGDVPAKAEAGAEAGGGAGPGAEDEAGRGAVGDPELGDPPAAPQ
# [2] = biological target: T2, 17-beta-hydroxysteroid dehydrogenase type 2 (Homo sapiens) (UniProt P37059); experiment: Inhibition of human recombinant 17-beta-HSD2 expressed in human HeLa cells using estradiol as substrate preincubated for 30 mins prior substrate addition measured after 120 mins by spectrophotometry; assay type: cell-based
# T2 sequence (whole entry): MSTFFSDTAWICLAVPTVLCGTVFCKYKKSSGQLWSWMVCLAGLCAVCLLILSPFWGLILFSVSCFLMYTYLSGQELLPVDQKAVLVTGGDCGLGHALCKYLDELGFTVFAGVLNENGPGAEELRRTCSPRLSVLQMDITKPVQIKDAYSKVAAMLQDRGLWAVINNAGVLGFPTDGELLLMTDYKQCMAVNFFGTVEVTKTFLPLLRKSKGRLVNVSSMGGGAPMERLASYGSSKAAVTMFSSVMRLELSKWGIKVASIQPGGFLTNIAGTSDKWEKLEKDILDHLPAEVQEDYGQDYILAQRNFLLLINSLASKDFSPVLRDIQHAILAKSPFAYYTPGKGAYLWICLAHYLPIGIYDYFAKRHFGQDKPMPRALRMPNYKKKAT
# [3] = biological target: T3, Androgen receptor (Homo sapiens) (UniProt P10275); experiment: Agonist activity at human androgen receptor expressed in human HeLa cells assessed as DHT-induced response after 40 hrs by luciferase/beta-galactosidase-based reporter gene assay; assay type: functional, cell-based
# T3 sequence (whole entry): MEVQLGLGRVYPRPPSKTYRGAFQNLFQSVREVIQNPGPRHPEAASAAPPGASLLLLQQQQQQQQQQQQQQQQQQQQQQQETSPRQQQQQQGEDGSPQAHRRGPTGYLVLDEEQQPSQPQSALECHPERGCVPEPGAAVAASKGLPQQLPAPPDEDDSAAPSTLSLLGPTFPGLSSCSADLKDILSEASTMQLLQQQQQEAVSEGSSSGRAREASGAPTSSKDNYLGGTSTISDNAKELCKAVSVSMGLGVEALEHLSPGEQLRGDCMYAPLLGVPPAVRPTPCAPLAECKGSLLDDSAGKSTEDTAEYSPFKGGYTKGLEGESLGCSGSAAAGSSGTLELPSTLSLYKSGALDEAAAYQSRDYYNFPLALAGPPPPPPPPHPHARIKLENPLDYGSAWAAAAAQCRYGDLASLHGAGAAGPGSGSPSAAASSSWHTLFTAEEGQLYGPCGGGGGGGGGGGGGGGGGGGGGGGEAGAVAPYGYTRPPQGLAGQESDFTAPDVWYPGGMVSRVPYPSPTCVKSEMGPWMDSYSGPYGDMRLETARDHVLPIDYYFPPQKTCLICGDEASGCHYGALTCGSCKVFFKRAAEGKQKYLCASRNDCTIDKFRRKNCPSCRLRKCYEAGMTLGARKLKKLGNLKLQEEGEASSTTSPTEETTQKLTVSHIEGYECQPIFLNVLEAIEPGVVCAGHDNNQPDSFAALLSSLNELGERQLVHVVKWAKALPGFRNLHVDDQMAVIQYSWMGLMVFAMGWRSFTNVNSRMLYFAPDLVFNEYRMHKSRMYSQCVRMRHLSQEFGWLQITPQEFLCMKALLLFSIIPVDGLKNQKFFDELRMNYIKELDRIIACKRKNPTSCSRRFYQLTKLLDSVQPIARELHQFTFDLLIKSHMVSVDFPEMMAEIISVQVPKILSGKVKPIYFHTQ
# [4] = biological target: T4, Estrogen receptor (Homo sapiens) (UniProt P03372); experiment: Agonist activity at human Estrogen receptor ERalpha expressed in human HeLa cells assessed as DHT-induced response after 40 hrs by luciferase/beta-galactosidase-based reporter gene assay; assay type: functional, cell-based
# T4 sequence (whole entry): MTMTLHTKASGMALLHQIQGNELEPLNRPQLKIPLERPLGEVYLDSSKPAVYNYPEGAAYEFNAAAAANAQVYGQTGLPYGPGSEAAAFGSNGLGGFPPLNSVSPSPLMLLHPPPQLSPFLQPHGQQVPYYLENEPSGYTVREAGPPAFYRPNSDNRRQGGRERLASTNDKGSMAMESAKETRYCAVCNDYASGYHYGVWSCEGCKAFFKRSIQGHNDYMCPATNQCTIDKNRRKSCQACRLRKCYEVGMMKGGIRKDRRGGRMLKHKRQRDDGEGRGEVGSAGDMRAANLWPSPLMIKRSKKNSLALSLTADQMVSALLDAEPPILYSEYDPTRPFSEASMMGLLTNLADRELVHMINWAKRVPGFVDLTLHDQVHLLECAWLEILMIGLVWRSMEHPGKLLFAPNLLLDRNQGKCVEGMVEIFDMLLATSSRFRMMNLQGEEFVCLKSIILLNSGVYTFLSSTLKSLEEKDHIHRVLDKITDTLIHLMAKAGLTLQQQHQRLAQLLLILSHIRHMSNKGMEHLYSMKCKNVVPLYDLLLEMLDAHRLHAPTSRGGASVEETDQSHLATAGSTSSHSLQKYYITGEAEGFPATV
# [5] = biological target: T5, Glucocorticoid receptor (Homo sapiens) (UniProt P04150); experiment: Agonist activity at human Glucocorticoid receptor expressed in human HeLa cells assessed as DHT-induced response after 40 hrs by luciferase/beta-galactosidase-based reporter gene assay; assay type: functional, cell-based
# T5 sequence (whole entry): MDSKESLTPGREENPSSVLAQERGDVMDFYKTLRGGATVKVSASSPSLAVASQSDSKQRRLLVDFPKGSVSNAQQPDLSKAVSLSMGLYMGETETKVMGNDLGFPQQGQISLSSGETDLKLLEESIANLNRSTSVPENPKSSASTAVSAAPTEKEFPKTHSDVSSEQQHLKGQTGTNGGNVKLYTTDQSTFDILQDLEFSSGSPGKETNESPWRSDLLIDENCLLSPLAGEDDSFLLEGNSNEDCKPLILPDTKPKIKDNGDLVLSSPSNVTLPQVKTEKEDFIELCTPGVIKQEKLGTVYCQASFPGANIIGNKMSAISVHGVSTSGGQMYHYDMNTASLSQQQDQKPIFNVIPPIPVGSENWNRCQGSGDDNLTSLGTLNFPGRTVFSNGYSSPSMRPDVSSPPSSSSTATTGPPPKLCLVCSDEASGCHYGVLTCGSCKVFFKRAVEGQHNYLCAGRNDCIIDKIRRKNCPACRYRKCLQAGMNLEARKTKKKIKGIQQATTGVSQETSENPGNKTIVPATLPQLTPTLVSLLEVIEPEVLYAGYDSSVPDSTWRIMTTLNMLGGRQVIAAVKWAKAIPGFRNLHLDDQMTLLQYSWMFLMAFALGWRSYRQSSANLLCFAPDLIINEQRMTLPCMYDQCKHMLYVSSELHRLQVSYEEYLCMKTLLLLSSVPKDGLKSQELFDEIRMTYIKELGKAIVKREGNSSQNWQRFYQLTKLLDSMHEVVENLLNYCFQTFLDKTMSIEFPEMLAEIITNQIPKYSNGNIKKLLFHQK
# [6] = biological target: T3, Androgen receptor (Homo sapiens); experiment: Antagonist activity at human androgen receptor expressed in human HeLa cells assessed as inhibition of DHT-induced response after 40 hrs by luciferase/beta-galactosidase-based reporter gene assay; assay type: functional, cell-based
# [7] = biological target: T4, Estrogen receptor (Homo sapiens); experiment: Antagonist activity at human ERalpha receptor expressed in human HeLa cells assessed as inhibition of DHT-induced response after 40 hrs by luciferase/beta-galactosidase-based reporter gene assay; assay type: functional, cell-based
# [8] = biological target: T5, Glucocorticoid receptor (Homo sapiens); experiment: Antagonist activity at human GR receptor expressed in human HeLa cells assessed as inhibition of DHT-induced response after 40 hrs by luciferase/beta-galactosidase-based reporter gene assay; assay type: functional, cell-based
# [9] = biological target: T6, 17-beta-hydroxysteroid dehydrogenase type 3 (Homo sapiens, UniProt P37058)
# T6 sequence (P37058 whole entry): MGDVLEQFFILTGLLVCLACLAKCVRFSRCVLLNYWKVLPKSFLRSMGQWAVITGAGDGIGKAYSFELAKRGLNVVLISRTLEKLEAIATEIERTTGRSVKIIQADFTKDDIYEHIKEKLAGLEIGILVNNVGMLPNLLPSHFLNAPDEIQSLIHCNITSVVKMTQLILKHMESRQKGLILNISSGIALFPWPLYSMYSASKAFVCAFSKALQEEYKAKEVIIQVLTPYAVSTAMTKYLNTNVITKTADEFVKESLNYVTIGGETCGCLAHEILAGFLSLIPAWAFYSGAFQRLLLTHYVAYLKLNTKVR
# Description: Inhibition of human recombinant 17-beta-HSD3 expressed in human HeLa cells using androstenedione as substrate preincubated for 30 mins prior substrate addition measured after 120 mins by spectrophotometry
SMILES,inhibition [1],inhibition [2],Activity [3],Activity [4],Activity [5],Activity [6],Activity [7],Activity [8],IC50 [9]
O=C1O/C(=C\c2ccc(O)c(Br)c2)C(=O)N1c1ccc(F)nc1,inactive,inactive,inactive,inactive,inactive,inactive,inactive,inactive,21 nM
COc1ccc(N2C(=O)C(Cc3ccc(O)c(Br)c3)SC2=S)cc1 (configuration not stated),inactive,inactive,inactive,inactive,inactive,inactive,inactive,inactive,90 nM
O=C(Nc1ccc(N2C(=O)O/C(=C\c3ccc(O)c(Br)c3)C2=O)cc1)C1CCCCC1,inactive,inactive,inactive,inactive,inactive,inactive,inactive,inactive,21 nM
CN(C)c1ccc(N2C(=O)O/C(=C\c3ccc(O)c(Br)c3)C2=O)cn1,inactive,inactive,inactive,inactive,inactive,inactive,inactive,inactive,4 nM
CNC(=O)c1ccc(N2C(=O)O/C(=C\c3ccc(O)c(Br)c3)C2=O)cc1,inactive,inactive,inactive,inactive,inactive,inactive,inactive,inactive,56 nM
COc1ccc(N2C(=O)/C(=C/c3ccc(O)c(C)c3)OC2=S)cc1,inactive,inactive,inactive,inactive,inactive,inactive,inactive,inactive,20 nM
COc1ccc(N2C(=O)/C(=C(/C)c3ccc(O)c(Br)c3)SC2=S)cc1,inactive,inactive,inactive,inactive,inactive,inactive,inactive,inactive,90 nM
CSc1ccc(N2C(=O)O/C(=C\c3ccc(O)c(Br)c3)C2=O)cc1,inactive,inactive,inactive,inactive,inactive,inactive,inactive,inactive,90 nM
COc1ccc(N2C(=O)/C(=C/c3cc(F)c(O)c(Cl)c3)OC2=S)cc1,inactive,inactive,inactive,inactive,inactive,inactive,inactive,inactive,1 nM
COc1ccc(N2C(=O)/C(=C/c3ccc(O)c(Br)c3)SC2=S)cc1,inactive,inactive,inactive,inactive,inactive,inactive,inactive,inactive,
COc1ccc(N2C(=O)O/C(=C\c3ccc(O)c(Br)c3)C2=O)cc1,inactive,inactive,inactive,inactive,inactive,inactive,inactive,inactive,
